Measured values: patent US20070087977A1, “METHODS AND COMPOSITIONS FOR TREATING PAIN” (priority 2004, published 2007)
Like-named read-outs stand apart in the source and are kept apart here.

Legend:
[1] = tested on: mdr1a (P-gP) knockout mouse; conditions: same doses, cited from earlier work
[2] = tested on: adult subjects with chronic pain; test: Human study of the effects of oral quercetin (Q) and analgesics on sedation, concentration and pain; format: in vivo
Description: An empiric trial on the effects of oral quercetin (Q) on sedation, concentration, and pain was conducted. Inclusion criteria included ongoing pain of at least 4/10 on the Likert scale, poor tolerance of current analgesic regimen (complaints of sedation, dizziness, inability to focus), and willingness to complete daily diaries.
Approximately 16 adult subjects with chronic pain were screened and 9 subjects were admitted to the trial. Their pain disorders included peripheral neuropathy (2), facial pain (2), cervical radiculopathy (2), lumbar spine disease (3). Their pre-existing medications included short acting opioids (Vicodin TID, Tramadol 50 mg Q4-6), high dose, long acting opioids (OxyContin 240 mg, Methadone 400 mg), Gabapentin (900 mg and 2700 mg), Ativan, Flexeril, and Soma 350 mg. Seven of the subjects were using at least two analgesic medications. Two subjects were using no current medications because of prior histories of sedation and dizziness during opioid trials.
Q (Sigma) 500 mg per gel capsule was compounded and supplied to all subjects by overnight mail. Subjects were instructed to complete daily diaries for 7 days and continue their baseline medications and regular activities. On approximately the 7th day, they were asked to begin twice daily dosing of 2 Q (1000 mg) capsules (total daily dose of Q, 2000 mg). Diaries were completed for 7 days. Individual diaries included rating sleep interference, focus, pain now, and worst pain over the prior 24 hours. Subjects were instructed that concomitant pain medications should not be altered without speaking with the investigator. Subjects were advised that they would be contacted by telephone every day or every other day to assess progress in the trial and any side effects associated with the addition of Q. At the end of the trial, patients were interviewed. They were asked to rate their satisfaction with the study medication (−2-+2) and its ability to modulate the CNS effects of their pain medications.

[3] = tested on: Healthy subjects undergoing third molar removal; test: Quercetin ameliorates CNS effects of oxycodone in an acute pain model (third molar removal); format: in vivo, human
Description: Opioids frequently produce adverse CNS side effects in ambulatory settings, providing a rationale for improving opioid analgesia by minimizing adverse effects. […] Healthy subjects (N=65) undergoing third molar removal are randomly allocated to receive 500 mg oral quercetin or matching placebo at 1 hr prior to surgery. […] Total Nausea and Vomiting Score (TNVS) is calculated for the time from dosing through 24 hr.

| Compound | sensitivity to fetal cleft palate ([1]; heterozygous (+/-) mice) | sensitivity to fetal cleft palate ([1]; homozygous (+/+) mice) | sleep rating (1 perfect sleep, 10 worst) ([2]; after taking Q, all patients, FIG. 5) | concentration rating (1 perfect concentration, 10 worst) ([2]; after taking Q, all patients, FIG. 6) | worst pain in the last 24 hrs (NPRS, 1 no pain, 10 worst) ([2]; after taking Q, all patients, FIG. 7) | pain at the time the patients were called (pain now) ([2]; after taking Q, all patients, FIG. 8) | global assessment (scale of -2 to 2) ([2]; all patients on opiate or MSD and modulator (Q), FIG. 15) | CNS activation noted ([2]; opioid users taking Q) | central withdrawal noted (number of opioid users) ([2]; opioid users taking Q) | number of patients reporting 2 in global assessment ([2]; scale of -2 to 2, FIG. 15) | number of patients reporting -2 in global assessment ([2]; scale of -2 to 2, FIG. 15) | pain on the scale from 1-10 (worst pain in last 24 hrs, pain at time of call) ([2]; two patients not on baseline meds, poor tolerance of systemic medications, FIGS. 13 and 14) | median time to request for a second analgesic ([3]; 500 mg oral quercetin + 10 mg oral oxycodone) | mean pain intensity ([3]; 500 mg oral quercetin + 10 mg oral oxycodone, compared with placebo group) | oxycodone plasma concentrations, quercetin vs placebo group ([3]; prior to surgery, at 1 hr, at 4 hr) |
| --- | --- | --- | --- | --- | --- | --- | --- | --- | --- | --- | --- | --- | --- | --- | --- |
| CC[C@H](C)[C@H]1O[C@]2(C=C[C@@H]1C)C[C@@H]1C[C@@H](C/C=C(\C)[C@@H](O[C@H]3C[C@H](OC)[C@@H](O[C@H]4C[C@H](OC)[C@@H](O)[C@H](C)O4)[C@H](C)O3)[C@@H](C)/C=C/C=C3\CO[C@@H]4[C@H](O)C(C)=C[C@@H](C(=O)O1)[C@]34O)O2 [avermectin] | less sensitive | insensitive |  |  |  |  |  |  |  |  |  |  |  |  |  |
| O=c1c(O)c(-c2ccc(O)c(O)c2)oc2cc(O)cc(O)c12 [quercetin] |  |  | overall improvement | overall improvement | overall improvement | overall improvement | overall improvement in their condition | all the 4 opioid users | 3 | three | none | brought the pain down | 120 min | consistently lower | do not differ |
